One data set is described as follows: Acid–base titration. The class given is physicochemical. The note with it: 5 mg/ml, from pH 3.0, 5 μl aliquots of 0.05 M NaOH to about pH 9.0. Here is the method: After the polymer solution [H2K4b, H3K4b, H3K(+H)4b and H4K4b] was adjusted to pH 3.0 (5 mg/ml; initial volume 1 ml), aliquots (5 μl) of NaOH (0.05 M) were stepwise added with the pH measured (FiveEasy™ meter; InLab Solids Pro‐ISM pH electrode; Mettler Toledo, Columbus, OH, USA). Titration was stopped at approximately pH 9.0.
FIGURE 2 Titration of different HK peptide solutions. Solutions of polymers (5 mg/ml) [H2K4b, H3K4b, H3K(+H)4b and H4K4b] were adjusted to pH 3 (initial volume 1 ml) and then 5‐μl aliquots of 0.05 N NaOH were stepwise added and the pH was measured

Data set [1] deals with MDA‐MB‐231 cells. Briefly: In vitro transfection of luciferase-expressing mRNA with HK polyplexes. The class given is cell-based. The note with it: for Effectiveness as carrier of mRNA: luciferase mRNA polyplexes; for Luciferase activity, RLU/µg-Protein: polyplex in Opti-MEM on cells 4 h, then DMEM/10% serum, luciferase 24 h later, mean ± SD. The procedure: Several HK peptides were examined for their ability to carry a luciferase‐expressing mRNA (CleanCap Firefly Luciferase mRNA; Trilink Biotechnologies, Inc., San Diego, CA, USA) into MDA‐MB‐231 cells (America Type Tissue Culture, Manassas, VA, USA). In brief, 3 × 10^4 cells were plated into a 24‐well plate containing 500 μl of Dulbecco’s modified Eagle’s medium (DMEM) and 10% fetal bovine serum (Thermo Fisher Scientific, Waltham, MA, USA). After 24 hours, when the cells were 60–80% confluent, the media in each well was changed to Opti‐MEM (Thermo Fisher Scientific). To prepare HK polyplexes, mRNA (1 μg) in 50 μl of Opti‐MEM was briefly mixed well with one of the HK peptides (4–12 μg) and maintained at room temperature for 30 minutes. This polyplex was then added dropwise to the cells. After 4 hours, the Opti‐MEM media was removed and replaced with 0.5 ml of DMEM/10% serum. Twenty‐four hours later, the cells were lysed, and luciferase activity (Promega Corporation, Madison, WI, USA) was measured. ^28 Also, a negative control (mRNA without the carrier) was added to the cells and luciferase activity measured 24 hours later.
FIGURE 1 Comparison of H3K(+H)4b and H3K4b peptides as carriers of mRNA. To form polyplexes, the mRNA (1 μg) was mixed with three different ratios of the HK (4, 8 and 12 μg) polymer for 30 minutes. The mRNA polyplexes were then added to the cells as described in the Materials and methods, and luciferase activity was measured 24 hours later. ***p < 0.001; ****p < 0.0001, H3K(+H)4b versus H3K4b
FIGURE 6 Comparing H3K(+H)4b and other four‐branched HK peptides for mRNA transfection. After polyplexes were formed with HK peptides (4 μg) and luciferase‐expressing mRNA (1 μg) and added to cells, luciferase activity was measured […] later. These HK peptides contained an additional histidine in the second motif.
FIGURE 7 Comparison of H3K(+H)4b with branched peptides without an additional histidine in the second motif. Polyplexes were formed with mRNA (1 μg) and various HK peptides (4 μg) and, after their addition to cells, luciferase activity was determined 24 h later. H3K(1+H)4b and H3K(3+H)4b peptides have an extra histidine in the first and third domains, respectively. H3K(1,3+H)4b has two additional histidines: one in the first and the other third motif. […] Unlike H3K(+H)4b, the predominant repeating motif of H2K4b in its branch is ‐HHK. ***p < 0.001, H3K(+H)4b versus H2K4b or H3K(1,3+H)4b; ****p < 0.0001, H3K(+H)4b versus H3K(1+H)4b or H3K(3+H)4b motifs
To prepare HK polyplexes, luciferase-expressing mRNA (1 µg) in 50 µl of Opti-MEM was briefly mixed with one of the HK peptides (4, 8, or 12 µg) and maintained at room temperature for 30 min. This polyplex was then added dropwise to the MDA-MB-231 cells and after four h, the Opti-MEM media was removed and replaced with DMEM/10% serum. Twenty-four hours later, luciferase activity was measured.

In data set [2] the test system is MDA‐MB‐231 cells. The data set can be described thus: In vitro uptake of HK polyplexes by fluorescence microscopy. The data set is classed as cell-based. As to conditions: HK:mRNA 4:1; for Aggregates of polyplexes seen by fluorescence microscopy: 4 hours after transfection. The procedure:
With the mRNA labeled with Cy5, HK polyplexes at a ratio of 4:1 (HK:mRNA) were prepared as described for in vitro transfection. The labeled polyplexes were incubated with MDA‐MB‐231 cells for four hours in Opti‐MEM. After the cells were washed with phosphate‐buffered saline (PBS) (Quality Biologicals, Gaithersburg, MD, USA), they were incubated for 30 minutes with LysoTracker Green DND‐26 (Cell Signaling Technology, Inc., Danvers, MA, USA), a dye that stains acidic endosomes and lysosomes. Then after the cells were washed twice with PBS and once with 1% Triton‐X, they were fixed (4% formalin/1% glutaraldehyde) and the nuclei were stained with chromatin dye Hoechst 33342 (Invitrogen, Carlsbad, CA, USA). Images were obtained with a Nikon TE2000‐S (Nikon, Tokyo, Japan) with a mercury lamp light source usng the filter sets: Ex‐357(20)/Em‐460(60) (Hoechst); Ex‐480(30)/Em‐535(45) (Lysotracker green DND‐26); Ex‐620(50)/Em‐690(50) (Cy5‐labeled‐mRNA). Red/green ratios were measured on 20 intracellular acidic vesicles (one per cell) using ImageJ, version 1.52. ^42
FIGURE 5 Fluorescence images of different mRNA polyplexes within acidic vesicles of MDA‐MB‐231 cells. (A) Four hours after transfection with labeled mRNA by H3K(+H)4b (upper) or H3K4b (lower) carriers, intracellular acidic vesicles were stained with Lysotracker green. The cells were then fixed, and the nuclei were stained with Hoesch 33342 dye. Images were obtained with a Nikon TE2000‐S using a mercury lamp light source and the filter sets delineated in the Materials and methods (green, acidic vesicles; red, cynanine 5‐labeled mRNA; blue, nuclei labeled with Hoescht dye). […] Arrows indicate the irregularly shaped mRNA aggregates frequently observed with H3K4b carrier. (B) Analysis of the amount of HK (H3K4b or H3K(+H)4b) polyplexes within acidic endosomal vesicles of MDA‐MB‐231 cells. Images of HK polyplexes labeled with cyanine5 (red emission) were imported into endosomal vesicles (green emission). The red/green ratios were measured on 20 intracellular acidic vesicles using ImageJ. […]

The mark [3] stands for this setting: ratio 1:4 (wt:wt; mRNA:polymer; 1 µg mRNA, 4 µg HK).
The mark [4] stands for this setting: ratio 1:8 (wt:wt; mRNA:polymer; 1 µg mRNA, 8 µg HK).
Setting [5] is: ratio 1:12 (wt:wt; mRNA:polymer; 1 µg mRNA, 12 µg HK).

In the case of “R = KHHHKHHHKHHHHKHHHK [H3K(+H)4b, four‐branched analogue of H3K4b with one extra histidine in the second ‐HHHK‐ motif]”, the “Buffering profile from pH titration curves” value in “Acid–base titration” was “minimal differences in their buffering profile”. Further, the “Luciferase expression relative to H3K4b peptide” value in the data set on MDA‐MB‐231 cells [1] (fold greater, ratio 4:1 (HK:mRNA; w:w)) is 10 fold. Besides, the “Effectiveness as carrier of mRNA” value in the data set on MDA‐MB‐231 cells [1] was “effective carriers of mRNA”. Moreover, the “Luciferase activity, RLU/µg-Protein” value in the data set on MDA‐MB‐231 cells [1] (setting [3]) came out at 1532.9±122.9 RLU/µg-Protein; with MDA‐MB‐231 cells [1] (setting [4]) it was 1656.3±202.5 RLU/µg-Protein; with MDA‐MB‐231 cells [1] (setting [5]), 1033.4±197 RLU/µg-Protein. Besides, the “Aggregates of polyplexes seen by fluorescence microscopy” value in the data set with MDA‐MB‐231 cells [2] was “not observed”. The “Localization of polyplexes within acidic endosomal vesicles” value with MDA‐MB‐231 cells [2] (4 hours in Opti‐MEM, red/green ratios on 20 vesicles, p < 0.001) is given as “localized within the acidic endosomal vesicles significantly more than H3K4b polyplexes”.
For “R = KHHHKHHHKHHHKHHHK [H3K4b, four‐branched histidine‐lysine peptide with four ‐HHHK‐ motifs in each branch]”, the “Buffering profile from pH titration curves” value in “Acid–base titration” is “minimal differences in their buffering profile”. The “Effectiveness as carrier of mRNA” value with MDA‐MB‐231 cells [1] is on record as “not effective carriers of mRNA”. For the same substance, the “Luciferase activity, RLU/µg-Protein” value in the data set on MDA‐MB‐231 cells [1] (setting [3]) is recorded as 156.8±41.8 RLU/µg-Protein; in the data set on MDA‐MB‐231 cells [1] (setting [4]), 62.1±13.2 RLU/µg-Protein; with MDA‐MB‐231 cells [1] (setting [5]), 18.1±4.0 RLU/µg-Protein. The “Aggregates of polyplexes seen by fluorescence microscopy” value with MDA‐MB‐231 cells [2] is “likely extracellular aggregates”.
